Holding throughout (test): Competitive isoTOP-ABPP, cell lysates
Holding throughout (type): binding

The target of one assay is UBE2L3 C86 (P68036) (Homo sapiens, UniProt P68036). The note with it: for isoTOP-ABPP ratio, P68036_C86: 500 μM, invitro.
The next assay concerns the target XPO1 C528 (O14980) (Homo sapiens, UniProt O14980). The note with it: for R value (DMSO/fragment): 250 μM, in vitro.
The next assay addresses GNB2L1 C182 (P63244) (Homo sapiens, UniProt P63244). The note with it: for isoTOP-ABPP ratio, P63244_C182: 500 μM, invitro.
Another assay addresses SMARCC2 C145 (Q8TAQ2) (Homo sapiens, UniProt Q8TAQ2). The note with it: for isoTOP-ABPP ratio (reactivity profile), Q8TAQ2_C145: 500 μm in-vitro ramos.
In the next assay the target is T1, PDIA6 C190 (Q15084) (Homo sapiens, UniProt Q15084).
T1 sequence (Q15084 20-440): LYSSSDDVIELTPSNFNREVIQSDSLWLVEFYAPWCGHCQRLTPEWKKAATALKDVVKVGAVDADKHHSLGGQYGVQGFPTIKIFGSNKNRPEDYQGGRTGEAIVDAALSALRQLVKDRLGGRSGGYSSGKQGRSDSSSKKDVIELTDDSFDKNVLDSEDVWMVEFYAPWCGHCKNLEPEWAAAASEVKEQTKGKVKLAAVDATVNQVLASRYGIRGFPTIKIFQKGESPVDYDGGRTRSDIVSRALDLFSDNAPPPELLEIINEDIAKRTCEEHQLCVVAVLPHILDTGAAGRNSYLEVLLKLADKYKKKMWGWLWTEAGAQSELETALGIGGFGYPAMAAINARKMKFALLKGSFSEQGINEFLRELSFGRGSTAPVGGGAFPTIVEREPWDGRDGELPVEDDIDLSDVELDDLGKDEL
The following applies: for R value (DMSO/fragment): 250 μM, in vitro; for isoTOP-ABPP ratio, Q15084_C190: 500 μM, invitro.

Another assay addresses SAMHD1 C522 (Q9Y3Z3) (Homo sapiens, UniProt Q9Y3Z3). The note with it: for isoTOP-ABPP ratio (reactivity profile), Q9Y3Z3_C522: 500 μm in-vitro ramos.
The next assay deals with GSTP1 C48 (P09211) (Homo sapiens, UniProt P09211). The note with it: for R value (DMSO/fragment): 250 μM, in vitro; for isoTOP-ABPP ratio, P09211_C48: 500 μM, invitro.
A further assay has as its target T2, MGMT C150 (P16455) (Homo sapiens, UniProt P16455).
T2 sequence (P16455 1-207): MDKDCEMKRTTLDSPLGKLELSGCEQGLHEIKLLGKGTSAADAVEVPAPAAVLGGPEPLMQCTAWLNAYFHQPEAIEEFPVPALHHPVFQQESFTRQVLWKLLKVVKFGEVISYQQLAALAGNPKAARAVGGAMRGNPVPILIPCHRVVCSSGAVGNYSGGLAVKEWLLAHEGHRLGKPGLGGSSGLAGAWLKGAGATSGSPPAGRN
The following applies: for isoTOP-ABPP ratio (reactivity profile), P16455_C150: 500 μm in-vitro ramos.

Another assay has as its target STAT3 C259 (P40763) (Homo sapiens, UniProt P40763). The following applies: for R value (DMSO/fragment): 250 μM, in vitro.
The next assay deals with XPO1 C34 (O14980) (Homo sapiens, UniProt O14980). The note with it: for R value (DMSO/fragment): 250 μM, in vitro; for isoTOP-ABPP ratio, O14980_C34: 500 μM, invitro.
In a further assay the target is DCUN1D1 C115 (Q96GG9) (Homo sapiens, UniProt Q96GG9).

`COc1ccc(C2CC(c3cccs3)=NN2C(=O)CCl)cc1` (centres unmarked) [compound 4]: the “R value (DMSO/fragment)” value at UBE2L3 C86 (P68036) (250 μM, in vitro, MDA-MB-231) came out at 1.2; on XPO1 C528 (O14980) (MDA-MB-231) it was 0.9; on XPO1 C528 (O14980) (Ramos), 1.1; at GNB2L1 C182 (P63244) (250 μM, in vitro, MDA-MB-231) it was 0.9; on SMARCC2 C145 (Q8TAQ2) (250 μM, in vitro, MDA-MB-231) it was 1.3; on PDIA6 C190 (Q15084) (MDA-MB-231), 1.8. Further, the “R value (DMSO/fragment)” value at PDIA6 C190 (Q15084) (Ramos) turned out to be 1.2; at SAMHD1 C522 (Q9Y3Z3) (250 μM, in vitro, MDA-MB-231), 1.5; at GSTP1 C48 (P09211) (MDA-MB-231), 3.2; at GSTP1 C48 (P09211) (Ramos), 0.5; at MGMT C150 (P16455) (250 μM, in vitro, Ramos), 6.9; on STAT3 C259 (P40763) (MDA-MB-231) it was 2.0. Further, the “R value (DMSO/fragment)” value on STAT3 C259 (P40763) (Ramos) is 1.9; on XPO1 C34 (O14980) (MDA-MB-231) it was 1.0; at XPO1 C34 (O14980) (Ramos), 0.2.

For `O=C(CCl)NCCc1c[nH]c2ccccc12` [compound 13], the “isoTOP-ABPP ratio, P68036_C86” value at UBE2L3 C86 (P68036) (231) amounted to 1.1; at UBE2L3 C86 (P68036) (ramos), 0.8. Further, the “isoTOP-ABPP ratio O14980_C528” value on XPO1 C528 (O14980) (500 μM, invitro, ramos) came to 0.5. Further, the “isoTOP-ABPP ratio, P63244_C182” value on GNB2L1 C182 (P63244) (231) is recorded as 1.4; at GNB2L1 C182 (P63244) (ramos) it was 0.8. At SMARCC2 C145 (Q8TAQ2) (500 μM, invitro, ramos), the “isoTOP-ABPP ratio Q8TAQ2_C145” value is listed as 0.8. The “isoTOP-ABPP ratio, Q15084_C190” value on PDIA6 C190 (Q15084) (231) is 1.5; on PDIA6 C190 (Q15084) (ramos), 1.3. Further, the “isoTOP-ABPP ratio, Q9Y3Z3_C522” value at SAMHD1 C522 (Q9Y3Z3) (500 μM, invitro, 231) came to 0.8. The entries for the “isoTOP-ABPP ratio, P09211_C48” value at GSTP1 C48 (P09211) (231) and at GSTP1 C48 (P09211) (ramos) were 1.5 and 1.2, respectively. The “isoTOP-ABPP ratio, P16455_C150” value on MGMT C150 (P16455) (500 μM, invitro, ramos) was 4.2. Also, at STAT3 C259 (P40763) (500 μM, invitro, ramos), the “isoTOP-ABPP ratio, P40763_C259” value stood at 1.2. For the same compound, the “isoTOP-ABPP ratio, O14980_C34” value is 0.9 on XPO1 C34 (O14980) (231) and 0.7 on XPO1 C34 (O14980) (ramos).

As to `O=C(CCl)N1CCOCC1` [compound 22], the “isoTOP-ABPP ratio (reactivity profile), P68036_C86” value at UBE2L3 C86 (P68036) (500 μm in-vitro ramos) is recorded as 0.8. The entries for the “isoTOP-ABPP ratio (reactivity profile), Q96GG9_C115” value on DCUN1D1 C115 (Q96GG9) (500 μm in-vitro ramos) and at DCUN1D1 C115 (Q96GG9) (500 μm in-vitro ramos_231) were 0.8 and 1.0, respectively. For the same compound, the “isoTOP-ABPP ratio (reactivity profile), P63244_C182” value at GNB2L1 C182 (P63244) (500 μm in-vitro ramos_231) was 1.6. Moreover, the “isoTOP-ABPP ratio (reactivity profile), Q8TAQ2_C145” value on SMARCC2 C145 (Q8TAQ2) is reported as 1.2. Also, the “isoTOP-ABPP ratio (reactivity profile), Q15084_C190” value at PDIA6 C190 (Q15084) (500 μm in-vitro ramos) stood at 4.2; at PDIA6 C190 (Q15084) (500 μm in-vitro ramos_231) it was 2.2. Further, on SAMHD1 C522 (Q9Y3Z3), the “isoTOP-ABPP ratio (reactivity profile), Q9Y3Z3_C522” value was 0.8. Also, the “isoTOP-ABPP ratio (reactivity profile), P09211_C48” value on GSTP1 C48 (P09211) (500 μm in-vitro ramos) is on record as 0.7; on GSTP1 C48 (P09211) (500 μm in-vitro ramos_231) it was 0.9. Further, the “isoTOP-ABPP ratio (reactivity profile), P16455_C150” value on MGMT C150 (P16455) is given as 2.9. Further, the “isoTOP-ABPP ratio (reactivity profile), P40763_C259” value on STAT3 C259 (P40763) (500 μm in-vitro ramos_231) is 2.0. Besides, the “isoTOP-ABPP ratio (reactivity profile), O14980_C34” value on XPO1 C34 (O14980) (500 μm in-vitro ramos_231) stood at 1.1.

In the case of `CC(Br)C(=O)Nc1cc(C(F)(F)F)cc(C(F)(F)F)c1` (centres unmarked) [compound 24], the “isoTOP-ABPP ratio (reactivity profile), Q96GG9_C115” value on DCUN1D1 C115 (Q96GG9) (500 μm in-vitro ramos) stood at 1.7. For the same compound, on XPO1 C528 (O14980) (500 μm in-vitro ramos), the “isoTOP-ABPP ratio (reactivity profile), O14980_C528” value is on record as 20.0. The “isoTOP-ABPP ratio (reactivity profile), P63244_C182” value on GNB2L1 C182 (P63244) (500 μm in-vitro ramos) was 2.6. In addition, the “isoTOP-ABPP ratio (reactivity profile), Q8TAQ2_C145” value on SMARCC2 C145 (Q8TAQ2) stood at 5.4. Besides, the “isoTOP-ABPP ratio (reactivity profile), Q15084_C190” value on PDIA6 C190 (Q15084) (500 μm in-vitro ramos) was 1.7. Further, on SAMHD1 C522 (Q9Y3Z3), the “isoTOP-ABPP ratio (reactivity profile), Q9Y3Z3_C522” value came out at 1.1. On GSTP1 C48 (P09211) (500 μm in-vitro ramos), the “isoTOP-ABPP ratio (reactivity profile), P09211_C48” value is reported as 1.6. The “isoTOP-ABPP ratio (reactivity profile), P16455_C150” value at MGMT C150 (P16455) is listed as 4.0. The “isoTOP-ABPP ratio (reactivity profile), P40763_C259” value at STAT3 C259 (P40763) (500 μm in-vitro ramos) was 1.7. In addition, on XPO1 C34 (O14980) (500 μm in-vitro ramos), the “isoTOP-ABPP ratio (reactivity profile), O14980_C34” value was determined as 1.1.

Source of the values: patent US10670605B2, “Cysteine reactive probes and uses thereof” (The Scripps Research Institute, priority 2015, dated 2020).
